The values below are quoted from earlier work in US12378302B2, “Fusion molecules and uses thereof” (Foundation Medicine, Inc., priority 2012, dated 2025).

Where two headings read alike, the source gives them in different places.

Series [1] deals with VEGFR2. As to conditions: VEGFR2/3 vs FGFR1, PDGFRα/β.
In series [2] the target is FKBP12 (Homo sapiens, UniProt P62942). As to conditions: read-out: IC50 mTOR inhibitor of FKBP12.
Series [3] relates to PDGFRβ, IGF-1R, EGFR.
Series [4] deals with Abl, Fyn, Kit, Lck, Lyn and Yes.
The test system is the same in series [5]. The source holds these as a separate data set.
For series [6], the system named is H460 cells. As to conditions: read-out: IC50 reduction of colony number and size.
The subject of series [7] is Akt and PDK1.
Series [8] has as its system phosphorylation of FGFR-1, EGFR or c-Met.
In series [9] the test system is HER2, PDGFR, VEGFR-2, Bcr-Abl and c-Kit.
The target in series [10] is B-Raf^V600E (Homo sapiens, UniProt P15056, V600E). Conditions: V600E vs wild-type.
Series [11] deals with c-Raf-1 (Y340D and Y341D mutations) (Homo sapiens, UniProt P04049, Y340D/Y341D).
Chain of c-Raf-1 (Y340D and Y341D mutations) (P04049 whole entry Y340D/Y341D): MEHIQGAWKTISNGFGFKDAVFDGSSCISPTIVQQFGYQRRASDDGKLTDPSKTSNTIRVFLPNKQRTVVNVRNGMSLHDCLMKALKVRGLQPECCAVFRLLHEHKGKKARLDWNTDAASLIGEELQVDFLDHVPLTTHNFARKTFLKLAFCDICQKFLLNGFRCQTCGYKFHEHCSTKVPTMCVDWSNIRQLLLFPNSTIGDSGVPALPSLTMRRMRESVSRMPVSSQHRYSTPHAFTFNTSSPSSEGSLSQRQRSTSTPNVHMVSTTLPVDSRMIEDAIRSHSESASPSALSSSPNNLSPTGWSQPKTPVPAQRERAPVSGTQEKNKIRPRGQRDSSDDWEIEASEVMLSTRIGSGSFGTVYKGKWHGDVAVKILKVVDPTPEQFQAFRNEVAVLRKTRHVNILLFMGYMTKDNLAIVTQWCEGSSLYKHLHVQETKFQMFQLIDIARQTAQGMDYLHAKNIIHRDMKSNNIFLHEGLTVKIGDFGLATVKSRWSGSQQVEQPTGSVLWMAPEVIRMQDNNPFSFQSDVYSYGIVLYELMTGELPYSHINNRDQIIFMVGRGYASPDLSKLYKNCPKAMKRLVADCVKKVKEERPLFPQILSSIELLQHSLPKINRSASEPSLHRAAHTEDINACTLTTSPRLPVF
Series [12] deals with VEGFR3 (Homo sapiens, UniProt P35916).
Chain of VEGFR3 (P35916 25-1363): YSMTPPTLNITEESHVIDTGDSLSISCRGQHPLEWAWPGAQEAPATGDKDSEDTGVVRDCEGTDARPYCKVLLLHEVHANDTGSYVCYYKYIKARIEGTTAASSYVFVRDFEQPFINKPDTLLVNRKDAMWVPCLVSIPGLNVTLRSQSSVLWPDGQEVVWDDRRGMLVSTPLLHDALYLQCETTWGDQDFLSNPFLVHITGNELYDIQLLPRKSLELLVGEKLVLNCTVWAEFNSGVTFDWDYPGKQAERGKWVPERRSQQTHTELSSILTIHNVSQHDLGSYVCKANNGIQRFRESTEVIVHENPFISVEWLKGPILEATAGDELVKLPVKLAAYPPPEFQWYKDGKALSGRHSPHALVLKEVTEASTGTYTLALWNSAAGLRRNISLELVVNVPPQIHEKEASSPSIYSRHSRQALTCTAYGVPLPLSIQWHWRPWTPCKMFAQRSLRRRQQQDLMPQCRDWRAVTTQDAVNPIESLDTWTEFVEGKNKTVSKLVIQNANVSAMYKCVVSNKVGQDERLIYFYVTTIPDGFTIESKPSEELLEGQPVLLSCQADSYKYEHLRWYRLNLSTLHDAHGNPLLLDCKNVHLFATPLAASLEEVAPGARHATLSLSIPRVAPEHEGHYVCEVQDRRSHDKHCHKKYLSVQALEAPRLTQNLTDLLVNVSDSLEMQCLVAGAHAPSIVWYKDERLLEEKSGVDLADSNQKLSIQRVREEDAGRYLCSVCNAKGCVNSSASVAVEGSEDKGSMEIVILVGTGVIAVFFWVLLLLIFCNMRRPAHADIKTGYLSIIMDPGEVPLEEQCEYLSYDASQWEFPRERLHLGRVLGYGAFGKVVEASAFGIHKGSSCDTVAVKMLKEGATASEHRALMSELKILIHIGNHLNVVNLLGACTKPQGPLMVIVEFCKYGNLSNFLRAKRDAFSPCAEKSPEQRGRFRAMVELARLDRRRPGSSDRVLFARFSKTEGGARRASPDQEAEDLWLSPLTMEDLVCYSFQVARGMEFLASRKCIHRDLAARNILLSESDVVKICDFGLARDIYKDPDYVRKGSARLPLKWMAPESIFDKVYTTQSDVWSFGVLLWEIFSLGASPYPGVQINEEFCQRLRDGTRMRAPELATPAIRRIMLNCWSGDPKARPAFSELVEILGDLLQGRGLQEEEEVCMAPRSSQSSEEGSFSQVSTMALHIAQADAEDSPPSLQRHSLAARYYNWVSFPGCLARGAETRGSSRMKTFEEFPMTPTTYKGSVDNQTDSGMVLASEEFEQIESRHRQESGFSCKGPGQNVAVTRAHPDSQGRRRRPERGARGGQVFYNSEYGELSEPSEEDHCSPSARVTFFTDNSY
For series [13], the system named is Akt1, CDKs, PLK1, EGFR, IGF-1R, c-Met, Flt2 etc.
Series [14] deals with FGFR1 and EGFR.
Series [15] deals with Aβ40 production.
Series [16] has as its target PKA.
The target of series [17] is PKC.
The target of series [18] is PKG.
The target of series [19] is CaMK. As to conditions: competitively with ATP.
Series [20] has as its system PI3Ks.
Series [21] relates to FGFR-1, Flt3, c-Met EGFR and IGF-1R.
For series [22] the test system is unchanged. This is another data set of the same source.
Series [23] addresses InsR (Homo sapiens, UniProt P06213).
Series [24] deals with STAT5 phosphorylation.
Series [25] deals with HEL92.1.7 cells. Conditions: read-out: IC50 antiproliferative activity.
For series [26], the system named is STAT5 phosphorylation. Conditions: read-out: IC50 for prevention of STAT5 phosphorylation.
The test system of series [27] is HEL92.1.7 cells. Conditions: read-out: IC50 antiproliferative activity in vitro.
Series [28] relates to myeloproliferative disorders.
For series [29], the system named is myeloproliferative disorders. The source holds these as a separate data set.
In series [30] the target is T1, PDGFRα (Homo sapiens, UniProt P16234). As to conditions: read-out: IC50 against PDGFRα.
T1 sequence (P16234 24-1089, species assumed): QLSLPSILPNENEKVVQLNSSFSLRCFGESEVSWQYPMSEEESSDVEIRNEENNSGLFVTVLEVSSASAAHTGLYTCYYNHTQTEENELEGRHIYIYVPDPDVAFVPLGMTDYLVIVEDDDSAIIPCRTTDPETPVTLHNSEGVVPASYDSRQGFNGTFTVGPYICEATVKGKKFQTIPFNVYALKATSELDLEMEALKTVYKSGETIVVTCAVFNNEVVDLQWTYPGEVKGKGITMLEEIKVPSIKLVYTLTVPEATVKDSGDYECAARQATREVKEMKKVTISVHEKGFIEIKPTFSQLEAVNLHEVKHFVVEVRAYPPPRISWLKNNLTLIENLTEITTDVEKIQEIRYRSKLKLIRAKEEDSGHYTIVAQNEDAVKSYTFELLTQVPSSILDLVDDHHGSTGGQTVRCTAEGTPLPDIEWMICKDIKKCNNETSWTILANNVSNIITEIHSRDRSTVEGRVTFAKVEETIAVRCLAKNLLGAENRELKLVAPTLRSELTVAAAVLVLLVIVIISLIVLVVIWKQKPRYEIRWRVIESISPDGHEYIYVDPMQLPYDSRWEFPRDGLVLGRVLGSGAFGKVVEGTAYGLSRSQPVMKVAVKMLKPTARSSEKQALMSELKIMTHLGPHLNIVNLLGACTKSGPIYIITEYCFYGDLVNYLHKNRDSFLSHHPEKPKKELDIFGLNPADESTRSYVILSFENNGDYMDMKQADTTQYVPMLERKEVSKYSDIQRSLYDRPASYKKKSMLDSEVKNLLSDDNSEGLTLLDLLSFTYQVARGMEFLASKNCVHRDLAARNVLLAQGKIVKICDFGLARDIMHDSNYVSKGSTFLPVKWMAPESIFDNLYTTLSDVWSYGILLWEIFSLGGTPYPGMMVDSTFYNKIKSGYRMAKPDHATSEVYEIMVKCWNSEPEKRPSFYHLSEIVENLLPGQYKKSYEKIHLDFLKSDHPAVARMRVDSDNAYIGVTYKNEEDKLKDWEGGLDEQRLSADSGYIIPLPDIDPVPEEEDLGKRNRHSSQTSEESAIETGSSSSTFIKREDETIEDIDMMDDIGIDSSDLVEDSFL
Series [31] concerns the target T1, PDGFRα.
The target in series [32] is EGFR (Homo sapiens, UniProt P00533). As to conditions: ErbB family vs other kinases.
Series [33] has as its system panel of 12 PMTs and DNMT1.

Chain of FKBP12 (P62942 whole entry): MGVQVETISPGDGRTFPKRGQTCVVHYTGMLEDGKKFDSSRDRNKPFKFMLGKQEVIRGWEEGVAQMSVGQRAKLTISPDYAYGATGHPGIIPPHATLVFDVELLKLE
Chain of InsR (P06213 28-1382, species assumed): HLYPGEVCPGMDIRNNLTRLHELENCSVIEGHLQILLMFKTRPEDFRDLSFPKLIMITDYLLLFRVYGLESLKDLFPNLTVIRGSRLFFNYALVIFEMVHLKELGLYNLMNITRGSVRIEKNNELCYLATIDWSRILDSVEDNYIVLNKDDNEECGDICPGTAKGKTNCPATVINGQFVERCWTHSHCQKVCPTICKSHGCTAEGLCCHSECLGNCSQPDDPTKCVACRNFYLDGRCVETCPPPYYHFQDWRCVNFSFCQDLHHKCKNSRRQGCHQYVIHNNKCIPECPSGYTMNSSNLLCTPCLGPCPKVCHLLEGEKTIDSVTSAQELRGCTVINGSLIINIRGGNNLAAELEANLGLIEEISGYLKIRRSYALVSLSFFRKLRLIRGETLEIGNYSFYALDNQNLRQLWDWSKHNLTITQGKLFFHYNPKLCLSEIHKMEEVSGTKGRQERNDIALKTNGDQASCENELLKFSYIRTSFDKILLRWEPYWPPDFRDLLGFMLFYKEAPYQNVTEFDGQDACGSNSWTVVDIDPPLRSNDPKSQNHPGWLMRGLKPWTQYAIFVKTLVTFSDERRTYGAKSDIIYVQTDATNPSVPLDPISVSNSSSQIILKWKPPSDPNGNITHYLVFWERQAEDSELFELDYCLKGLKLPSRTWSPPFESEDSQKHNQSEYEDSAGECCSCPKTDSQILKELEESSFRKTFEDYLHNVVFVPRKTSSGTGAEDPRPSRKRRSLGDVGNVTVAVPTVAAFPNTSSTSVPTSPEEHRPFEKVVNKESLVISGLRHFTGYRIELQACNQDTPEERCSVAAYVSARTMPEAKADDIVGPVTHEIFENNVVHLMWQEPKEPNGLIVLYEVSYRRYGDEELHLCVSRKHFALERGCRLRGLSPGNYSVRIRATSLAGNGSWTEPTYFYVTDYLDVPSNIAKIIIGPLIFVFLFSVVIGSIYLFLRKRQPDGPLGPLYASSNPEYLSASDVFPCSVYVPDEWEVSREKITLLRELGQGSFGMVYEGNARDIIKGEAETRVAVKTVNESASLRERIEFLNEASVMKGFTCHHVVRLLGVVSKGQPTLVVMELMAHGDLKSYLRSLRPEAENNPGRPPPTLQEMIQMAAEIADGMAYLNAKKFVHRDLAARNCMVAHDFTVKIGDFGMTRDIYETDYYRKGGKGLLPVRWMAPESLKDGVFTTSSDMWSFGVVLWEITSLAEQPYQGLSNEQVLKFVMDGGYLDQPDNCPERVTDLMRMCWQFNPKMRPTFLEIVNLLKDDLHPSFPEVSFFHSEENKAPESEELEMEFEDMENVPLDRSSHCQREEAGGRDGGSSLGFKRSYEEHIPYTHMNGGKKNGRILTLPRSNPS

For the molecule `COc1cc2nccc(Oc3ccc(NC(=O)NC4CC4)c(Cl)c3)c2cc1C(N)=O` [E7080, 1-(4-(6-carbamoyl-7-methoxyquinolin-4-yloxy)-2-chlorophenyl)-3-cyclopropylurea], the “more selective for VEGFR2/3 against FGFR1, PDGFRα/β” value in [1] is reported as about 10 fold. By IC50 is commonly meant the concentration at which inhibition is half-maximal. Regarding `CO[C@H]1C[C@@H]2CC[C@@H](C)[C@@](O)(O2)C(=O)C(=O)N2CCCC[C@H]2C(=O)O[C@H]([C@@H](C)C[C@@H]2CC[C@@H](OCCO)[C@H](OC)C2)CC(=O)[C@H](C)/C=C(\C)[C@@H](O)[C@@H](OC)C(=O)C(C)C[C@H](C)/C=C/C=C/C=C/1C` (stereo partly drawn) [Everolimus, 23,27-Epoxy-3H-pyrido[2,1-c][1,4]oxaazacyclohentriacontine, rapamycin deriv], in [2], the half-maximal inhibitory concentration (IC50) is 1.6 to 2.4 nM.

`O=C(c1ccc(/C=C/c2n[nH]c3ccccc23)cc1)N1CCNCC1` [KW-2449, (E)-(4-(2-(1H-indazol-3-yl)vinyl)phenyl)(piperazin-1-yl)methanone]: the “effect on PDGFRβ, IGF-1R, EGFR” value in [3] is reported as “little effect”. In the case of `CCN1CCN(c2ccc(Nc3cc(N(C)C(=O)Nc4c(Cl)c(OC)cc(OC)c4Cl)ncn3)cc2)CC1` [BGJ398, 3-(2,6-dichloro-3,5-dimethoxyphenyl)-1-(6-(4-(4-ethylpiperazin-1-yl)phenylamino)pyrimidin-4-yl)-1-methylurea], the “activity to Abl, Fyn, Kit, Lck, Lyn and Yes” value in [4] and in series [5] was “little activity” each time. Regarding `COc1cc2c(cc1OC)C(=Cc1ccc(O)cc1)C(=O)N2` [RPI-1, 1,3-dihydro-5,6-dimethoxy-3-[(4-hydroxyphenyl)methylene]-H-indol-2-one], in series [6], the IC50 was 24500 nM. Turning to `Cn1c(=O)n(-c2ccc(C(C)(C)C#N)cc2)c2c3cc(-c4cnc5ccccc5c4)ccc3ncc21` [BEZ235, 2-methyl-2-(4-(3-methyl-2-oxo-8-(quinolin-3-yl)-2,3-dihydroimidazo[4,5-c]quinolin-1-yl)phenyl)propanenitrile], the “inhibition of Akt and PDK1” value in [7] is reported as “poor inhibitory”. Consider `CCCNC(=O)Nc1ccc(Oc2ncnc3cc(OC)c(OC)cc23)cc1Cl` [KRN 633, 1-(2-chloro-4-(6,7-dimethoxyquinazolin-4-yloxy)phenyl)-3-propylurea], for which the “block of the phosphorylation of FGFR-1, EGFR or c-Met in cell” value in [8] is on record as “does not block”. For `Nc1ncnc2c1c(-c1cccc(OCc3ccccc3)c1)cn2C1CC(CN2CCCC2)C1` (stereo in doubt) [NVP-ADW742, 5-(3-(benzyloxy)phenyl)-7-((1r,3r)-3-(pyrrolidin-1-ylmethyl)cyclobutyl)-7H-pyrrolo[2,3-d]pyrimidin-4-amine], the “activity to HER2, PDGFR, VEGFR-2, Bcr-Abl and c-Kit” value in [9] is given as “little activity”.

In the case of `CCCS(=O)(=O)Nc1ccc(F)c(C(=O)c2c[nH]c3ncc(Cl)cc23)c1F` [PLX4720, N-(3-(5-chloro-1H-pyrrolo[2,3-b]pyridine-3-carbonyl)-2,4-difluorophenyl) propane-1-sulfonamide], the “selectivity for B-RafV600E than wild-type B-Raf” value in [10] is given as 10 fold. For the same molecule, the “potency to c-Raf-1 (Y340D and Y341D mutations) relative to B-Raf V600E” value in [11] is “equally potent”.

For orientation: Ki means the dissociation constant of the complex between target and ligand, obtained from inhibition or displacement. On to `CCn1c(N)c(C(=O)NC)c(=O)c2ccc(C#C[C@@](C)(O)COC)nc21` [SAR131675, (R)-2-amino-1-ethyl-7-(3-hydroxy-4-methoxy-3-methylbut-1-ynyl)-N-methyl-4-oxo-1,4-dihydro-1,8-naphthyridine-3-carboxamide], for which, in [12], the Ki was 12 nM, the “more selective for VEGFR3 than VEGFR1” value is “about 50 fold” and the “more selective for VEGFR3 than VEGFR2” value is recorded as about 10 fold. For the same molecule, the IC50 in [12] (read-out: IC50 VEGFR3 (Flt4)) was 23 nM. Further, in series [13], the “activity against Akt1, CDKs, PLK1, EGFR, IGF-1R, c-Met, Flt2 etc.” value is recorded as “little activity”.

In the case of `COc1cc2c(Oc3ccc(NC(=O)C4(C(=O)Nc5ccc(F)cc5)CC4)cc3F)ccnc2cc1OCCCN1CCOCC1` [Foretinib, N-(3-fluoro-4-(6-methoxy-7-(3-morpholinopropoxy)quinolin-4-yloxy)phenyl)-N-(4-fluorophenyl)cyclopropane-1,1-dicarboxamide], the “activity to FGFR1 and EGFR” value in series [14] is “little activity”. Consider `O=C(O)CC[C@H]1CC[C@@](c2cc(F)ccc2F)(S(=O)(=O)c2ccc(Cl)cc2)CC1` [MK-0752, 3-((1r,4s)-4-(4-chlorophenylsulfonyl)-4-(2,5-difluorophenyl)cyclohexyl)propanoic acid], for which the half-maximal inhibitory concentration (IC50) in [15] was 5 nM. For `COC(=O)[C@@]1(O)C[C@H]2O[C@]1(C)n1c3ccccc3c3c4c(c5c6ccccc6n2c5c31)C(=O)NC4` [K252a], the inhibitory constant (Ki) was 18 nM in series [16], 25 nM in series [17], 20 nM in series [18] and 1.8 nM in series [19]. `COc1ccc(-c2ccc3c(N4CCOCC4)nc(N4C[C@@H](C)O[C@@H](C)C4)nc3n2)cc1CO` [KU-0063794, (5-(2-((2R,6S)-2,6-dimethylmorpholino)-4-morpholinopyrido[2,3-d]pyrimidin-7-yl)-2-methoxyphenyl)methanol]: the “effect on PI3Ks” value in [20] is “no effect”. On to `COc1cc2nccc(Oc3ccc(NC(=O)Nc4cc(C)on4)c(Cl)c3)c2cc1OC` [Tivozanib, 1-(2-chloro-4-(6,7-dimethoxyquinolin-4-yloxy)phenyl)-3-(5-methylisoxazol-3-yl)urea], for which the “activity against FGFR-1, Flt3, c-Met EGFR and IGF-1R” value in [21] and in series [22] was “low activity” in each case. As to `CC(C)(C)c1cc(C=C(C#N)C#N)cc(Br)c1O` [AG-1024, 2-(3-bromo-5-tert-butyl-4-hydroxybenzylidene) malononitrile], the half-maximal inhibitory concentration (IC50) in [23] was 57000 nM.

Consider `C[C@]12O[C@H](C[C@]1(O)CO)n1c3ccccc3c3c4c(c5c6ccccc6n2c5c31)CNC4=O` [Lestaurtinib, (9S,10S,12R)-2,3,9,10,11,12-Hexahydro-10-hydroxy-10-(hydroxymethyl)-9-methyl-9,12-epoxy-1H-diindolo[1,2,3-fg:3′,2′,l′-kl]pyrrolo[3,4-i][1, 6]benzodiazocin-1-one], for which the concentration for half-maximal inhibition (IC50) is 20 to 30 nM in series [24], 30 to 100 nM in series [25], 20 to 30 nM in [26] and 30 to 100 nM in [27]. In addition, the “effect against myeloproliferative disorders in vivo” value in [28] and in series [29] was “effective” throughout. For `S=C(NCc1ccc2c(c1)OCO2)N1CCN(c2ncnc3c2oc2ccccc23)CC1` [Amuvatinib], the IC50 in [30] and in series [31] was 40 nM each time.

As for `C=CC(=O)Nc1ccc2ncnc(Nc3ccc(OCc4cccc(F)c4)c(Cl)c3)c2c1.Cc1ccc(S(=O)(=O)O)cc1` [AST-1306, 2-Propenamide, N-[4-[[3-chloro-4-[(3-fluorophenyl)methoxy]phenyl]amino]-6-quinazolinyl]-, 4-methylbenzenesulfonate (1:1)], the “selective for ErbB family than other kinases” value in series [32] was 3000 fold. In the case of `CC(C)N(CCCNC(=O)Nc1ccc(C(C)(C)C)cc1)C[C@H]1O[C@@H](n2cc(Br)c3c(N)ncnc32)[C@H](O)[C@@H]1O` [SGC 0946, 1-[3-[[[(2R,3S,4R,5R)-5-(4-Amino-5-bromo-7H-pyrrolo[2,3-d]pyrimidin-7-yl)-3,4-dihydro-xytetrahydrofuran-2-yl]methyl](isopropyl)amino]pro-pyl]-3-[4-(2,2-dimethylethyl)phenyl]urea], in [33], the “activity against a panel of 12 PMTs and DNMT1” value was “inactive”.
